Values of other authors as cited in patent US10045978B2 (AB SCIENCE, priority 2010, dated 2018).
Like-named read-outs stand apart in the source and are kept apart here.

Tests used:
[1] = tested on: patients with WHO-defined systemic mastocytosis (SM); conditions: cited from earlier work
mastocytosis patients = conditions: in vivo; cited from earlier work
[2] = tested on: mast cells carrying the D816V c-Kit mutation; conditions: in vitro; cited from earlier work
[3] = tested on: indolent mastocytosis patients; conditions: cited from earlier work
patients = conditions: of patients; cited from earlier work
[4] = entire evaluable study population (N=108)
[5] = patients with indolent SM (N=22)

Row | Compound | major response rate [1, 4] [%] | overall response rate [1, 4] [%] | overall response rate [1, 5] [%] | cases with reduced mast cell tumor burden (mastocytosis patients) | response of mast cells carrying the D816V c-Kit mutation [2] | overall response rate ([1]; c-Kit D816V positive SM patients) [%] | patients reporting symptomatic improvements [3] | grade 4 neutropaenia (patients) [%]
1 | interferon-alpha | 18 | 53 | 60 |  |  |  |  | 
2 | Nc1nc(Cl)nc2c1ncn2[C@H]1C[C@H](O)[C@@H](CO)O1 [Cladribine] | 37 | 55 | 56 | up to 50% |  |  |  | 
3 | Cc1ccc(NC(=O)c2ccc(CN3CCN(C)CC3)cc2)cc1Nc1nccc(-c2cccnc2)n1 [imatinib] | 9 | 18 | 14 |  | resistant | 17 | 6/11 | 5
4 | NC(=O)NO [hydroxyurea] | 0 | 19 | 0 |  |  |  |  | 
